Six molecules from ChEMBL document CHEMBL1697781, “Assessment of the health effects of chemicals in humans: II. Construction of an adverse effects database for QSAR modeling” (Curr Drug Discov Technol, 2004) can be followed below.
Throughout, for GGT Increase - Index Value: reference of the scale not given here.
Throughout, for LDH Increase - Index Value: reference of the scale not given here.

The first data set deals with Hepatotoxicity. In words: FDA HLAED, alkaline phosphatase increase. Particulars: human.
With `CC1Cc2ccccc2N1NC(=O)c1ccc(Cl)c(S(N)(=O)=O)c1` (stereo not drawn) [INDAPAMIDE], the “Alkaline Phosphatase Increase - Activity Score” value is listed as “Inactive”, the “Alkaline Phosphatase Increase - Index Value” turned out to be 0.5 and the “Alkaline Phosphatase Increase - Number of Reports” value is recorded as < 4.
For `CC(=O)N(CC(O)CN(C(C)=O)c1c(I)c(C(=O)NCC(O)CO)c(I)c(C(=O)NCC(O)CO)c1I)c1c(I)c(C(=O)NCC(O)CO)c(I)c(C(=O)NCC(O)CO)c1I` (stereo not drawn) [IODIXANOL], the “Alkaline Phosphatase Increase - Activity Score” value is on record as “Inactive”, the “Alkaline Phosphatase Increase - Index Value” amounted to 0 and the “Alkaline Phosphatase Increase - Number of Reports” value is reported as < 4.
Turning to `CC(=O)N(CC(O)CO)c1c(I)c(C(=O)NCC(O)CO)c(I)c(C(=O)NCC(O)CO)c1I` (stereo not drawn) [IOHEXOL], the “Alkaline Phosphatase Increase - Activity Score” value is “Inactive”, the “Alkaline Phosphatase Increase - Index Value” amounted to 144.9 and the “Alkaline Phosphatase Increase - Number of Reports” value was < 4.
For `C[C@H](O)C(=O)Nc1c(I)c(C(=O)NC(CO)CO)c(I)c(C(=O)NC(CO)CO)c1I` [IOPAMIDOL] the same measures were “Inactive”, 0 and < 4.
On to `COCC(=O)Nc1c(I)c(C(=O)NCC(O)CO)c(I)c(C(=O)N(C)CC(O)CO)c1I` (stereo not drawn) [IOPROMIDE], for which the “Alkaline Phosphatase Increase - Activity Score” value is listed as “Inactive”, the “Alkaline Phosphatase Increase - Index Value” came to 0 and the “Alkaline Phosphatase Increase - Number of Reports” value is reported as < 4.
For the molecule `O=C(NCC(O)CO)c1c(I)c(C(=O)NCC(O)CO)c(I)c(N(CCO)C(=O)CO)c1I` (stereo not drawn) [IOVERSOL], the “Alkaline Phosphatase Increase - Activity Score” value was “Inactive”, the “Alkaline Phosphatase Increase - Index Value” was 0 and the “Alkaline Phosphatase Increase - Number of Reports” value is < 4.

The subject of another data set is Hepatotoxicity. In words: FDA HLAED, gamma-glutamyl transferase (GGT) increase. The note with it: human.
As for `CC1Cc2ccccc2N1NC(=O)c1ccc(Cl)c(S(N)(=O)=O)c1` (stereo not drawn) [INDAPAMIDE], the “GGT Increase - Activity Score” value was “Inactive”, the “GGT Increase - Index Value” is given as 0 and the “GGT Increase - Number of Reports” value was < 4.
With `CC(=O)N(CC(O)CN(C(C)=O)c1c(I)c(C(=O)NCC(O)CO)c(I)c(C(=O)NCC(O)CO)c1I)c1c(I)c(C(=O)NCC(O)CO)c(I)c(C(=O)NCC(O)CO)c1I` (stereo not drawn) [IODIXANOL], the “GGT Increase - Activity Score” value is “Inactive”, the “GGT Increase - Index Value” worked out at 0 and the “GGT Increase - Number of Reports” value is reported as < 4.
Taken in the same sequence, the figures for `CC(=O)N(CC(O)CO)c1c(I)c(C(=O)NCC(O)CO)c(I)c(C(=O)NCC(O)CO)c1I` (stereo not drawn) [IOHEXOL] were “Inactive”, 0 and < 4.
Taken in the same sequence, the figures for `C[C@H](O)C(=O)Nc1c(I)c(C(=O)NC(CO)CO)c(I)c(C(=O)NC(CO)CO)c1I` [IOPAMIDOL] were “Inactive”, 0 and < 4.
As to `COCC(=O)Nc1c(I)c(C(=O)NCC(O)CO)c(I)c(C(=O)N(C)CC(O)CO)c1I` (stereo not drawn) [IOPROMIDE], the “GGT Increase - Activity Score” value is “Inactive”, the “GGT Increase - Index Value” worked out at 0 and the “GGT Increase - Number of Reports” value is on record as < 4.
Consider `O=C(NCC(O)CO)c1c(I)c(C(=O)NCC(O)CO)c(I)c(N(CCO)C(=O)CO)c1I` (stereo not drawn) [IOVERSOL], for which the “GGT Increase - Activity Score” value is given as “Inactive”, the “GGT Increase - Index Value” is given as 0 and the “GGT Increase - Number of Reports” value was < 4.

A further data set relates to Hepatotoxicity. As to the kind of experiment: FDA HLAED, lactate dehydrogenase (LDH) increase. Particulars: human.
In the case of `CC1Cc2ccccc2N1NC(=O)c1ccc(Cl)c(S(N)(=O)=O)c1` (stereo not drawn) [INDAPAMIDE], the “LDH Increase - Activity Score” value is listed as “Inactive”, the “LDH Increase - Index Value” came to 0.5 and the “LDH Increase - Number of Reports” value is < 4.
For `CC(=O)N(CC(O)CN(C(C)=O)c1c(I)c(C(=O)NCC(O)CO)c(I)c(C(=O)NCC(O)CO)c1I)c1c(I)c(C(=O)NCC(O)CO)c(I)c(C(=O)NCC(O)CO)c1I` (stereo not drawn) [IODIXANOL] the same measures were “Inactive”, 0 and < 4.
With `CC(=O)N(CC(O)CO)c1c(I)c(C(=O)NCC(O)CO)c(I)c(C(=O)NCC(O)CO)c1I` (stereo not drawn) [IOHEXOL], the “LDH Increase - Activity Score” value was “Inactive”, the “LDH Increase - Index Value” stood at 144.9 and the “LDH Increase - Number of Reports” value is given as < 4.
Taken in the same sequence, the figures for `C[C@H](O)C(=O)Nc1c(I)c(C(=O)NC(CO)CO)c(I)c(C(=O)NC(CO)CO)c1I` [IOPAMIDOL] were “Active”, 1579 and < 4.
For `COCC(=O)Nc1c(I)c(C(=O)NCC(O)CO)c(I)c(C(=O)N(C)CC(O)CO)c1I` (stereo not drawn) [IOPROMIDE] the same measures were “Inactive”, 0 and < 4.
Regarding `O=C(NCC(O)CO)c1c(I)c(C(=O)NCC(O)CO)c(I)c(N(CCO)C(=O)CO)c1I` (stereo not drawn) [IOVERSOL], the “LDH Increase - Activity Score” value is listed as “Inactive”, the “LDH Increase - Index Value” is on record as 400 and the “LDH Increase - Number of Reports” value was < 4.

For another data set, the system named is Hepatotoxicity. As to the kind of experiment: FDA HLAED, serum glutamic oxaloacetic transaminase (SGOT) increase. Particulars: human.
On to `CC1Cc2ccccc2N1NC(=O)c1ccc(Cl)c(S(N)(=O)=O)c1` (stereo not drawn) [INDAPAMIDE], for which the “SGOT Increase - Activity Score” value is on record as “Inactive”, the “SGOT Increase - Index Value” is recorded as 1 and the “SGOT Increase - Number of Reports” value is < 4.
Taken in the same sequence, the figures for `CC(=O)N(CC(O)CN(C(C)=O)c1c(I)c(C(=O)NCC(O)CO)c(I)c(C(=O)NCC(O)CO)c1I)c1c(I)c(C(=O)NCC(O)CO)c(I)c(C(=O)NCC(O)CO)c1I` (stereo not drawn) [IODIXANOL] were “Inactive”, 0 and < 4.
Taken in the same sequence, the figures for `CC(=O)N(CC(O)CO)c1c(I)c(C(=O)NCC(O)CO)c(I)c(C(=O)NCC(O)CO)c1I` (stereo not drawn) [IOHEXOL] were “Inactive”, 144.9 and < 4.
For `C[C@H](O)C(=O)Nc1c(I)c(C(=O)NC(CO)CO)c(I)c(C(=O)NC(CO)CO)c1I` [IOPAMIDOL], the “SGOT Increase - Activity Score” value is given as “Inactive”, the “SGOT Increase - Index Value” stood at 526.3 and the “SGOT Increase - Number of Reports” value was < 4.
For `COCC(=O)Nc1c(I)c(C(=O)NCC(O)CO)c(I)c(C(=O)N(C)CC(O)CO)c1I` (stereo not drawn) [IOPROMIDE] the same measures were “Inactive”, 0 and < 4.
Taken in the same sequence, the figures for `O=C(NCC(O)CO)c1c(I)c(C(=O)NCC(O)CO)c(I)c(N(CCO)C(=O)CO)c1I` (stereo not drawn) [IOVERSOL] were “Inactive”, 0 and < 4.

The test system of another data set is Hepatotoxicity. In words: FDA HLAED, serum glutamic pyruvic transaminase (SGPT) increase. The note with it: human.
On to `CC1Cc2ccccc2N1NC(=O)c1ccc(Cl)c(S(N)(=O)=O)c1` (stereo not drawn) [INDAPAMIDE], for which the “SGPT Increase - Activity Score” value is “Inactive”, the “SGPT Increase - Index Value” amounted to 0.5 and the “SGPT Increase - Number of Reports” value was < 4.
Take `CC(=O)N(CC(O)CN(C(C)=O)c1c(I)c(C(=O)NCC(O)CO)c(I)c(C(=O)NCC(O)CO)c1I)c1c(I)c(C(=O)NCC(O)CO)c(I)c(C(=O)NCC(O)CO)c1I` (stereo not drawn) [IODIXANOL]: the “SGPT Increase - Activity Score” value is recorded as “Inactive”, the “SGPT Increase - Index Value” is given as 0 and the “SGPT Increase - Number of Reports” value is on record as < 4.
Taken in the same sequence, the figures for `CC(=O)N(CC(O)CO)c1c(I)c(C(=O)NCC(O)CO)c(I)c(C(=O)NCC(O)CO)c1I` (stereo not drawn) [IOHEXOL] were “Inactive”, 0 and < 4.
For `C[C@H](O)C(=O)Nc1c(I)c(C(=O)NC(CO)CO)c(I)c(C(=O)NC(CO)CO)c1I` [IOPAMIDOL] the same measures were “Inactive”, 0 and < 4.
As to `COCC(=O)Nc1c(I)c(C(=O)NCC(O)CO)c(I)c(C(=O)N(C)CC(O)CO)c1I` (stereo not drawn) [IOPROMIDE], the “SGPT Increase - Activity Score” value was “Inactive”, the “SGPT Increase - Index Value” amounted to 0 and the “SGPT Increase - Number of Reports” value is recorded as < 4.
Consider `O=C(NCC(O)CO)c1c(I)c(C(=O)NCC(O)CO)c(I)c(N(CCO)C(=O)CO)c1I` (stereo not drawn) [IOVERSOL], for which the “SGPT Increase - Activity Score” value is recorded as “Inactive”, the “SGPT Increase - Index Value” was 0 and the “SGPT Increase - Number of Reports” value is < 4.

A further data set has as its system Hepatotoxicity. As to the kind of experiment: FDA HLAED, liver enzyme composite activity. The note with it: human.
Turning to `CC1Cc2ccccc2N1NC(=O)c1ccc(Cl)c(S(N)(=O)=O)c1` (stereo not drawn) [INDAPAMIDE], the “Composite Activity - Active” value was found to be 0, the “Composite Activity - Marginal” value was 0 and the “Composite Activity - Score” value is reported as “Inactive”.
As to `CC(=O)N(CC(O)CN(C(C)=O)c1c(I)c(C(=O)NCC(O)CO)c(I)c(C(=O)NCC(O)CO)c1I)c1c(I)c(C(=O)NCC(O)CO)c(I)c(C(=O)NCC(O)CO)c1I` (stereo not drawn) [IODIXANOL], the “Composite Activity - Active” value is on record as 0, the “Composite Activity - Marginal” value worked out at 0 and the “Composite Activity - Score” value is recorded as “Inactive”.
`CC(=O)N(CC(O)CO)c1c(I)c(C(=O)NCC(O)CO)c(I)c(C(=O)NCC(O)CO)c1I` (stereo not drawn) [IOHEXOL]: the “Composite Activity - Active” value is recorded as 0, the “Composite Activity - Marginal” value was 0 and the “Composite Activity - Score” value is on record as “Inactive”.
With `C[C@H](O)C(=O)Nc1c(I)c(C(=O)NC(CO)CO)c(I)c(C(=O)NC(CO)CO)c1I` [IOPAMIDOL], the “Composite Activity - Active” value was 1, the “Composite Activity - Marginal” value amounted to 0 and the “Composite Activity - Score” value is listed as “Inactive”.
In the case of `COCC(=O)Nc1c(I)c(C(=O)NCC(O)CO)c(I)c(C(=O)N(C)CC(O)CO)c1I` (stereo not drawn) [IOPROMIDE], the “Composite Activity - Active” value was found to be 0, the “Composite Activity - Marginal” value is 0 and the “Composite Activity - Score” value was “Inactive”.
With `O=C(NCC(O)CO)c1c(I)c(C(=O)NCC(O)CO)c(I)c(N(CCO)C(=O)CO)c1I` (stereo not drawn) [IOVERSOL], the “Composite Activity - Active” value is 0, the “Composite Activity - Marginal” value is 0 and the “Composite Activity - Score” value was “Inactive”.
